Assay results taken from paper PMC8151276, “An Integrated Approach toward NanoBRET Tracers for Analysis of GPCR Ligand Engagement” (Molecules, 2021).

Target: T1, CXCR2 (Homo sapiens, UniProt P25025)
T1 construct: purchased Promega (in-house HiBiT-GPCR construct library, NanoBRET)
T1 sequence (P25025 1-360): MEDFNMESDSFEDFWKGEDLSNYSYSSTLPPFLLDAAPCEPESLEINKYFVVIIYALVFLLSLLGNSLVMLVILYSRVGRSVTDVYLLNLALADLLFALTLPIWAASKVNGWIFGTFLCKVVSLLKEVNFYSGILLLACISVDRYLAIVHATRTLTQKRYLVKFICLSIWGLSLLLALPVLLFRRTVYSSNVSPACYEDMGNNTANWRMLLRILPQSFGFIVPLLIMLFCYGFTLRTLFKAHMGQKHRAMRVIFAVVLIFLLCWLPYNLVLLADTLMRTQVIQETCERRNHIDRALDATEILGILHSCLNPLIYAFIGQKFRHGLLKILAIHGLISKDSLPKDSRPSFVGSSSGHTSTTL
Test: NanoBRET screen HiBiT-CXCR2 in HEK293
Format: binding
Method: Each tracer candidate was screened across the entire library of HiBiT-GPCR constructs using NanoBRET as the detection modality. As depicted in Figure 4A, the specificity of interactions was evaluated through decrease in BRET due to competitive displacement of a bound tracer by excess parental compound. Each tracer was analyzed for binding to each HiBiT-GPCR fusion in the absence and in the presence of competing parental compound. Briefly, HEK293 cells were transfected with HiBiT-GPCR constructs diluted into promoterless DNA to reduce expression and maximize translocation to the cell surface. Each tracer candidate was then screened at concentrations of 1 μM and 0.1 μM across cells expressing these fusions. Cells were treated for 1.5 h with tracer either alone or in the presence of 20 μM competing parental compound (i.e., control). BRET was measured upon addition of purified LgBiT and subsequent complementation with HiBiT genetically fused to a GPCR. The specificity of interactions was assessed through a decrease in BRET signal due to competitive displacement of the bound tracer. To further gauge the robustness of these interactions, the fold response over the control (i.e., BRETtracer/BRETcontrol) was calculated. We chose a 1.5-fold response, which translates to ≥7-fold signal over noise as the minimal threshold required to score an interaction as positive. […]. Below we highlight the screening results obtained for our exemplary fluorescent tracers based on Clozapine, Amitriptyline and AZD1283.
HiBiT-GPCR DNA constructs were diluted in 10 mM Tris pH 8 to a final concentration of 0.01 μg/μL, arrayed in 96-well plates and stored at −20 °C. For transfection, HEK293 cells were suspended in Opti-MEM (without phenol red) supplemented with 2% fetal bovine serum (Seradigm) and 100 units/mL penicillin–streptomycin (Gibco) at a final concentration of 220,000 cells/mL and dispensed into white 96-well plates at 90 μL/well. Subsequent transfections and screens were carried using an Agilent Bravo Automated Liquid Handling Platform. First, the 96-well HiBiT DNA arrays were diluted 25-fold in Opti-MEM (without serum or phenol red) to a final concentration of 0.0004 μg/μL and 20 μL of the diluted DNAs were transferred into new 96-well plates. Next, promoterless carrier DNA (1 μg/μL) was diluted 25-fold (0.04 μg/μL) and then dispensed into the diluted arrays at 20 μL/well. Following brief mixing, Viafect transfection reagent (Promega) diluted 16-fold into Opti-MEM was dispensed into the plates at 40 μL/well. After mixing by pipetting, plates were incubated for 10 min on the pipetting station deck. The DNA-transfection reagent complexes were then added to plates containing cells. To facilitate the screen, 10 μL of DNA-transfection reagent complexes were added in duplicates to the top 4 and bottom 4 rows, resulting in two identical 48-well arrays per plate. Plates with transfected cells were incubated for 18–20 h at 37 °C/5% CO2. A screen of each tracer across the entire library using two different concentrations requires duplicate plates of transfected cells. Depending on the number of tracers being screened, transfections can be scaled up using the same ratios. The next day, for each tracer, four 20× screening solutions in tracer dilution buffer (Promega) were prepared: two duplicates at final concentration of 20 μM and two duplicates at a final concentration of 2 μM. A competing unmodified compound was added to one of each duplicate at a final concentration of 400 μM. The four resulting solutions were diluted 4-fold in Opti-MEM without serum or phenol red to generate 5× solutions (5 µM and 0.5 µM tracer +/− 100 μM competing compound). To screen the library, a BioTek MultiFlo FX liquid dispenser was used to dispense 22.5 µL of tracer solution to the top 4 rows and 22.5 µL tracer + competing compound solution to the 4 bottom rows. Plates were briefly mixed on an orbital shaker and incubated for 1.5 h at room temperature. […]

SMILES	NanoBRET Fold Response (CXCR2, tracer 0.1μM)	NanoBRET Fold Response (CXCR2, tracer 1μM)	other results
CCOC(=O)c1cc(C#N)c(N2CCC(C(=O)NS(=O)(=O)Cc3ccccc3/C=C/C(=O)NCCNC(=O)CCc3ccc4n3[B-](F)(F)[N+]3=C(c5ccc[nH]5)C=CC3=C4)CC2)nc1C [AZD1283-1-NB590]	–	–	NanoBRET Fold Response (CXCR2, 0.1μM): 0.99; NanoBRET Fold Response (CXCR2, 1μM): 1.03
N#CN=C(NCCCOc1cccc(CN2CCCCC2)c1)NCCNC(=O)CCOCCOCCOCCOCCNC(=O)CCc1ccc2n1[B-](F)(F)[N+]1=C(c3ccc[nH]3)C=CC1=C2 [Aminopotentidine-2-NB590]	0.90	0.95	–
CN(C)CCC=C1c2ccccc2CCc2ccc(C(=O)NCCNC(=O)CCOCCOCCOCCOCCNC(=O)CCc3ccc4n3[B-](F)(F)[N+]3=C(c5ccc[nH]5)C=CC3=C4)cc21 [Amitriptyline-a-2-NB590]	–	–	NanoBRET Fold Response (tracer at 0.1μM): 0.99; NanoBRET Fold Response (tracer at 1μM): 1.00
CN(C)CCC=C1c2ccccc2CCc2ccc(C(=O)NCCNC(=O)CCOCCOCCOCCOCCNC(=O)CCc3ccc4n3[B-](F)(F)[N+]3=C(c5ccc[nH]5)C=CC3=C4)cc21 [Amitriptyline-b-2-NB590]	–	–	NanoBRET Fold Response (tracer at 0.1μM, listed as amitriptyline-b-2-NB590): 0.97; NanoBRET Fold Response (tracer at 1μM, listed as amitriptyline-b-2-NB590): 0.83
CN(CCC=C1c2ccccc2CCc2ccccc21)C(=O)CCOCCOCCOCCOCCNC(=O)CCc1ccc2n1[B-](F)(F)[N+]1=C(c3ccc[nH]3)C=CC1=C2 [Amitriptyline-e-2-NB590]	–	–	NanoBRET Fold Response (tracer at 1μM): 1.07
COc1ccc2c(n1)c(CCNC(C)=O)cn2CCNC(=O)CCc1ccc2n1[B-](F)(F)[N+]1=C(c3ccc[nH]3)C=CC1=C2 [Azamelatonin-1-NB590]	–	–	NanoBRET Fold Response (0.1μM tracer): 0.97; NanoBRET Fold Response (1μM tracer): 0.98
COc1ccc2[nH]c(-c3ccc(CNC(=O)CCOCCOCCOCCOCCNC(=O)CCc4ccc5n4[B-](F)(F)[N+]4=C(c6ccc[nH]6)C=CC4=C5)cc3)c(CCNC(C)=O)c2n1 [AzomelatoninICO9-2-NB590]	–	–	NanoBRET Fold Response (0.1μM tracer): 1.38; NanoBRET Fold Response (1μM tracer): 1.00
O=C(CCOCCOCCOCCOCCNC(=O)CCc1ccc2n1[B-](F)(F)[N+]1=C(c3ccc[nH]3)C=CC1=C2)NCCCN1CCN(C2=Nc3cc(Cl)ccc3Nc3ccccc32)CC1 [Clozapine-a-2-NB590]	–	–	NanoBRET Fold Response (CXCR2, 0.1μM tracer): 1.02; NanoBRET Fold Response (CXCR2, 1μM tracer): 0.87
CN1CCN(C2=Nc3cc(Cl)ccc3Nc3ccc(CNC(=O)CCOCCOCCOCCOCCNC(=O)CCc4ccc5n4[B-](F)(F)[N+]4=C(c6ccc[nH]6)C=CC4=C5)cc32)CC1 [Clozapine-b-2-NB590]	–	–	NanoBRET Fold Response (CXCR2, 0.1μM tracer): 0.98; NanoBRET Fold Response (CXCR2, 1μM tracer): 1.06
CN1CCN(C2=Nc3cc(Cl)ccc3N(CC(=O)NCCOCCOCCOCCOCCNC(=O)CCc3ccc4n3[B-](F)(F)[N+]3=C(c5ccc[nH]5)C=CC3=C4)c3ccccc32)CC1 [Clozapine-c-2-NB590]	–	–	NanoBRET Fold Response (CXCR2, 0.1μM tracer): 1.03; NanoBRET Fold Response (CXCR2, 1μM tracer): 0.92
O=C(CCOCCOCCOCCOCCNC(=O)CCc1ccc2n1[B-](F)(F)[N+]1=C(c3ccc[nH]3)C=CC1=C2)NCCCN1CCN(C2=Nc3ccccc3Oc3ccc(Cl)cc32)CC1 [Loxapine-a-2-NB590]	1.06	0.98	–
COc1ccccc1N1CCN(CCCCN2C(=O)c3ccc(CNC(=O)CCOCCOCCOCCOCCNC(=O)CCc4ccc5n4[B-](F)(F)[N+]4=C(c6ccc[nH]6)C=CC4=C5)cc3C2=O)CC1 [NAN-190-2-NB590]	1.08	0.92	–
COc1ccccc1N1CCN(CCCCN2C(=O)c3ccc(CNC(=O)CCOCCNC(=O)c4ccc(CNC(=O)CCc5ccc6n5[B-](F)(F)[N+]5=C(c7ccc[nH]7)C=CC5=C6)cc4)cc3C2=O)CC1 [NAN-190-3-NB590]	1.10	0.86	–
O=C(CCc1ccc2n1[B-](F)(F)[N+]1=C(c3ccc[nH]3)C=CC1=C2)NCc1ccc(C(=O)NCCOCCC(=O)N[C@@H]2CC[C@@]3(O)[C@H]4Cc5ccc(O)c6c5[C@@]3(CCN4CC3CC3)[C@H]2O6)cc1 [Naltrexone-3-NB590]	0.81	0.78	–
Cc1cc2c(s1)Nc1ccccc1N=C2N1CCN(CCCNC(=O)CCOCCOCCOCCOCCNC(=O)CCc2ccc3n2[B-](F)(F)[N+]2=C(c4ccc[nH]4)C=CC2=C3)CC1 [Olanzapine-a-2-NB590]	0.97	1.08	–
O=C(CCc1ccc2n1[B-](F)(F)[N+]1=C(c3ccc[nH]3)C=CC1=C2)NCc1ccc(C(=O)NCCOCCOCCNCC(O)COc2cccc3ccccc23)cc1 (centres unmarked) [Propranolol-3-NB590]	–	–	NanoBRET Fold Response (CXCR2, 0.1μM): 1.07; NanoBRET Fold Response (CXCR2, 1μM): 1.03
O=C(CCc1ccc2n1[B-](F)(F)[N+]1=C(c3ccc[nH]3)C=CC1=C2)NCCOCCOCCNC(=O)OCCOCCN1CCN(C2=Nc3ccccc3Sc3ccccc32)CC1 [Quetiapine-a-2-NB590]	1.03	0.97	–
Cc1nc2n(c(=O)c1CCN1CCC(c3noc4cc(F)ccc34)CC1)CCCC2OC(=O)NCCOCCOCCOCCOCCNC(=O)CCc1ccc2n1[B-](F)(F)[N+]1=C(c3ccc[nH]3)C=CC1=C2 (centres unmarked) [Risperidone-2-NB590]	1.09	0.99	–
CC(C)N(CC[C@H](c1ccccc1)c1cc(CCNC(=O)CCOCCOCCOCCOCCNC(=O)CCc2ccc3n2[B-](F)(F)[N+]2=C(c4ccc[nH]4)C=CC2=C3)ccc1O)C(C)C [Tolterodine-2-NB590]	0.96	0.98	–
CC(C)N(CC[C@H](c1ccccc1)c1cc(CCNC(=O)c2ccc(CNC(=O)CCc3ccc4n3[B-](F)(F)[N+]3=C(c5ccc[nH]5)C=CC3=C4)cc2)ccc1O)C(C)C [Tolterodine-BZ-NB590]	0.99	1.06	–
CCCn1c(=O)c2[nH]c(-c3ccc(OCC(=O)NCCNC(=O)CCOCCNC(=O)c4ccc(CNC(=O)CCc5ccc6n5[B-](F)(F)[N+]5=C(c7ccc[nH]7)C=CC5=C6)cc4)cc3)nc2n(CCC)c1=O [XAC-3-NB590]	1.22	0.70	–
